Measurements reported in PubChem BioAssay (NCI).
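48-hour exposure; five concentrations; linearly interpolated endpoints. The concentration for 50% growth inhibition is given as GI50. TGI marks complete inhibition of growth.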

How the values were obtained:
Experiment in all cases: NCI anticancer screen, dose series, 48 h
[1] = system: 786-0 renal
[2] = system: A498 renal
[3] = system: A549 NSCLC
[4] = system: ACHN renal
[5] = system: BT-549 breast
[6] = system: CAKI-1 renal
[7] = system: CCRF-CEM leukemia
[8] = system: COLO 205 colon
[9] = system: DU-145 prostate
[10] = system: HCC-2998 colon
[11] = system: HCT-116 colon
[12] = system: HCT-15 colon
[13] = system: HL-60(TB) leukemia
[14] = system: HOP-62 NSCLC
[15] = system: HOP-92 NSCLC
[16] = system: HS 578T breast
[17] = system: HT29 colon
[18] = system: IGROV1 ovarian
[19] = system: K-562 leukemia
[20] = system: KM12 colon
[21] = system: LOX IMVI melanoma
[22] = system: M14 melanoma
[23] = system: MALME-3M melanoma
[24] = system: MCF7 breast
[25] = system: MDA-MB-231 breast
[26] = system: MDA-MB-435
[27] = system: MDA-MB-468 breast
[28] = system: MOLT-4 leukemia
[29] = system: NCI-H226 lung
[30] = system: NCI-H23 lung
[31] = system: NCI-H460 lung
[32] = system: NCI-H522 lung
[33] = system: OVCAR-3 ovarian
[34] = system: OVCAR-4 ovarian
[35] = system: OVCAR-5 ovarian
[36] = system: OVCAR-8 ovarian
[37] = system: PC-3 prostate
[38] = system: RPMI-8226 leukemia
[39] = system: RXF 393 renal
[40] = system: SF-268 CNS
[41] = system: SF-295 CNS
[42] = system: SF-539 CNS
[43] = system: SK-MEL-2 melanoma
[44] = system: SK-MEL-28 melanoma
[45] = system: SK-MEL-5 melanoma
[46] = system: SK-OV-3 ovarian
[47] = system: SN12C renal
[48] = system: SNB-19 CNS
[49] = system: SNB-75 CNS
[50] = system: SR leukemia
[51] = system: SW-620 colon
[52] = system: T-47D breast
[53] = system: TK-10 renal
[54] = system: U251 CNS
[55] = system: UACC-257 melanoma
[56] = system: UACC-62 melanoma
[57] = system: UO-31 renal

## O=C(Nc1ccc(I)cc1F)c1cc(-c2ccc(F)cc2F)ccc1O
[1]
  GI50: 3.06 µM
  TGI: 9.11 µM
[2]
  GI50: 2.54 µM
  TGI: 7.14 µM
[3]
  GI50: 3.09 µM
  TGI: 47.4 µM
[4]
  GI50: 3.06 µM
  TGI: 11.1 µM
[5]
  GI50: 2.36 µM
  TGI: 6.08 µM
[6]
  GI50: 1.71 µM
  TGI: 4.83 µM
[7]
  GI50: 3.31 µM
  TGI: 17 µM
[8]
  GI50: 1.91 µM
  TGI: 4.13 µM
[9]
  GI50: 3.68 µM
  TGI: > 100 µM
[10]
  GI50: 3.12 µM
  TGI: 26.5 µM
[11]
  GI50: 2.8 µM
  TGI: 8.81 µM
[12]
  GI50: 3.07 µM
  TGI: 28.8 µM
[13]
  GI50: 1.8 µM
  TGI: 5.66 µM
[14]
  GI50: 1.97 µM
  TGI: 4.91 µM
[15]
  GI50: 2.42 µM
  TGI: 5.93 µM
[16]
  GI50: 2.58 µM
  TGI: 7.38 µM
[17]
  GI50: 3.77 µM
  TGI: > 100 µM
[18]
  GI50: 4.65 µM
  TGI: > 100 µM
[19]
  GI50: 2.77 µM
  TGI: 11 µM
[20]
  GI50: 2.78 µM
  TGI: 8.1 µM
[21]
  GI50: 3.21 µM
  TGI: 10.9 µM
[22]
  GI50: 2.05 µM
  TGI: 5.48 µM
[23]
  GI50: 2.98 µM
  TGI: 7.93 µM
[24]
  GI50: 2.7 µM
  TGI: 11 µM
[25]
  GI50: 1.88 µM
  TGI: 4.31 µM
[26]
  GI50: 2.59 µM
  TGI: 7.58 µM
[27]
  GI50: 2.2 µM
  TGI: 5.76 µM
[28]
  GI50: 2.58 µM
  TGI: 9.32 µM
[29]
  GI50: 2.21 µM
  TGI: 6.3 µM
[30]
  GI50: 2.14 µM
  TGI: 6.04 µM
[31]
  GI50: 2.78 µM
  TGI: 8.42 µM
[32]
  GI50: 2.71 µM
  TGI: 8.62 µM
[33]
  GI50: 3.04 µM
  TGI: 9.16 µM
[34]
  GI50: 3.16 µM
  TGI: 27.1 µM
[35]
  GI50: 6.63 µM
  TGI: > 100 µM
[36]
  GI50: 3.17 µM
  TGI: 32.9 µM
[37]
  GI50: 3.09 µM
  TGI: > 100 µM
[38]
  GI50: 2.1 µM
  TGI: 5.67 µM
[39]
  GI50: 1.88 µM
  TGI: 5.45 µM
[40]
  GI50: 3.1 µM
  TGI: > 100 µM
[41]
  GI50: 2.12 µM
  TGI: 4.91 µM
[42]
  GI50: 3.2 µM
  TGI: 11.6 µM
[43]
  GI50: 1.79 µM
  TGI: 4.16 µM
[44]
  GI50: 3.76 µM
  TGI: > 100 µM
[45]
  GI50: 1.72 µM
  TGI: 3.29 µM
[46]
  GI50: 2.04 µM
  TGI: 5.55 µM
[47]
  GI50: 2.34 µM
  TGI: 6.88 µM
[48]
  GI50: 3.38 µM
  TGI: > 100 µM
[49]
  GI50: 1.49 µM
  TGI: 3.92 µM
[50]
  GI50: 2.49 µM
  TGI: 8.71 µM
[51]
  GI50: 3.31 µM
  TGI: 13.6 µM
[52]
  GI50: 2.12 µM
  TGI: 6.04 µM
[53]
  GI50: 3.96 µM
  TGI: 11.1 µM
[54]
  GI50: 2.31 µM
  TGI: 5.94 µM
[55]
  GI50: 2.41 µM
  TGI: 7.15 µM
[56]
  GI50: 2.32 µM
  TGI: 6.89 µM
[57]
  GI50: 2.44 µM
  TGI: 9.57 µM
